Reference: US20120142682A1, “ANT[…] INHIBITING BACTERIAL MONO-ADP-RIBOSYLT[…]” (UNIVERSITY OF GUELPH, priority 2010, published 2012)
Like-named read-outs stand apart in the source and are kept apart here.

Legend:
[1] = system: Saccharomyces cerevisiae cells expressing the catalytic domain of P. aeruginosa ExoA (ExoAc); experiment: Yeast-based compound screen; format: cell-based; settings: compound 50 μM; for Protection in Yeast: w303 strain, growth restored
WT ExoAc = WT ExoAc (Pseudomonas aeruginosa, UniProt P11439); experiment: biochemical; format: binding, P. aeruginosa
cholix toxin = cholix toxin (Vibrio cholerae, UniProt Q5EK40); experiment: biochemical; format: biochemical
[2] = system: C38 cells in the presence of 650 ng/mL of ExoA; experiment: Determination of half-maximal effective concentration (EC50) in C38 cells; format: cell-based, Human; settings: 96 h
Experimental: Cell viability was determined using the same method as the cytoprotection assay. The EC50 values were extrapolated from each corresponding line-of-best-fit (Sigmoidal function in Origin 6.1), and the average values reported±the standard deviation.

[3] = system: ExoA intoxicated C38 cells; format: cell-based, Human
[4] = 650 ng/ml ExoA (10-times LD50), NAP and V30 with 0.5% DMSO

Sequence of WT ExoAc (P11439 430-638 limits assumed): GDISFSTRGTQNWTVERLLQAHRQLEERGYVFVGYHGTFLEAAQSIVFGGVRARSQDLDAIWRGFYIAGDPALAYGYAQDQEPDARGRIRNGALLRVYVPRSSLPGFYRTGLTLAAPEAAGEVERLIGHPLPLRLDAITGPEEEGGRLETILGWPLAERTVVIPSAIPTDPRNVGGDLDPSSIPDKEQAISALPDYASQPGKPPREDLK
Sequence of cholix toxin (Q5EK40 33-666 limits assumed): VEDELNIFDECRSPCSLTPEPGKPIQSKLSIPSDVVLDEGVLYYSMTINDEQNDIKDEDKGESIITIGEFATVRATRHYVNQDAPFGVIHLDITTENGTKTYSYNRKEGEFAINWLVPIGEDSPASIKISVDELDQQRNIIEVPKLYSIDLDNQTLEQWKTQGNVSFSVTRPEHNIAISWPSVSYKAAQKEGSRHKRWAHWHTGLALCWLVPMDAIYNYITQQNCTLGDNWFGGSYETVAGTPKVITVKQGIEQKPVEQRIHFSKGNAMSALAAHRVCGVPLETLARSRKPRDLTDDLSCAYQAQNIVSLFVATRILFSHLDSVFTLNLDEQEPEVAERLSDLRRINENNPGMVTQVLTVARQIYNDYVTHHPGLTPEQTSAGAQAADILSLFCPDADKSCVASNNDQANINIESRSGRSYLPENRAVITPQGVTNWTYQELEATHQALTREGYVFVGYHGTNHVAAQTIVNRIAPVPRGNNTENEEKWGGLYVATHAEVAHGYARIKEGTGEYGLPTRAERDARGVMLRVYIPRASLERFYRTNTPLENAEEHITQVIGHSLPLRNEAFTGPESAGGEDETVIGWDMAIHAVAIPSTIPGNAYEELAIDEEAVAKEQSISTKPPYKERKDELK

SMILES | Protection in Yeast [1] | protection of C38 cells against ExoA (in words) [3] | other results
Nc1ccc2c3c(cccc13)C(=O)NC2=O [Compound 4-NAP, reference compound] | ++ (25-50% (++)) | – | –
CN(C)Cc1nc2cccc3c2n1CCNC3=O [Compound P4] | − (Compounds showing less than 5% growth were scored (−)) | – | Kd (WT ExoAc; read-out: Kd): 1380 ± 30 nM; IC50 (cholix toxin; read-out: IC50): 960 nM; Ki (cholix toxin; read-out: Ki): 132 ± 7 nM; EC50 [2, 4]: 12600 ± 3300 nM
O=C1NCCn2c(CCc3ccc(CN4CCCC4)cc3)nc3cccc1c32 [Compound P5] | − (Compounds showing less than 5% growth were scored (−)) | – | Kd (WT ExoAc; read-out: Kd): 750 ± 10 nM; IC50 (cholix toxin; read-out: IC50): 4460 nM; Ki (cholix toxin; read-out: Ki): 582 ± 124 nM; EC50 [2, 4]: 16700 ± 1900 nM
O=C1NCC2c3cc(S(=O)(=O)O)ccc3Oc3cccc1c32 (centres unmarked) [Compound P8] | − (Compounds showing less than 5% growth were scored (−)) | modest | difference in affinity between the two binding sites (WT ExoAc): ~50 fold; Kd (WT ExoAc; read-out: Kd): 160 nM; Kd (WT ExoAc; read-out: Kd, second (lower affinity) binding constant (converted)): 5210 nM; IC50 (cholix toxin; read-out: IC50): 1040 ± 136 nM; Ki (cholix toxin; read-out: Ki): 136 ± 3 nM
O=c1cc(NCCNc2cc(=O)oc3ccccc23)c2ccccc2o1 [Compound V1] | − (Compounds showing less than 5% growth were scored (−)) | – | –
CN1CCN(c2c(N)c(=O)oc3ccccc23)CC1 [Compound V2] | − (Compounds showing less than 5% growth were scored (−)) | – | –
CCN(CC)CCn1c(NCc2nc3ccccc3n2Cc2ccccc2)nc2ccccc21 [Compound V3] | − (Compounds showing less than 5% growth were scored (−)) | – | –
O=C(NCCNc1ccnc2cc(Cl)ccc12)c1ccccc1F [Compound V4] | − (Compounds showing less than 5% growth were scored (−)) | – | –
O=C(CCCC(=O)Nc1ccc(F)c(Cl)c1)Nc1ccc(F)c(Cl)c1 [Compound V5] | toxic (any compound that reduced cell viability to less than 30%) | – | –
Nc1c(C(=O)Nc2ccc(S(N)(=O)=O)cc2)sc2nc3c(cc12)CCCC3 [Compound V6] | − (Compounds showing less than 5% growth were scored (−)) | – | –
O=C(Nc1c2ccccc2nc2ccccc12)c1ccc([N+](=O)[O-])cc1 [Compound V7] | toxic (any compound that reduced cell viability to less than 30%) | – | –
COc1ccc(Nc2nc(N3CCN(CCO)CC3)nc3ccccc23)c(OC)c1 [Compound V8] | − (Compounds showing less than 5% growth were scored (−)) | – | –
Nc1c(NCCCN2CCOCC2)c2ccccc2oc1=O [Compound V9] | − (Compounds showing less than 5% growth were scored (−)) | moderate activity | –
Cc1cccc(Cn2c(N3CCCCC3C)nc3c2c(=O)[nH]c(=O)n3C)c1 (centres unmarked) [Compound V10] | − (Compounds showing less than 5% growth were scored (−)) | Weak protection | –
CC1(C)C(=O)N(CC(O)Cn2cnc3ccccc32)C(=O)N1CN1C(=O)N(CC(O)Cn2cnc3ccccc32)C(=O)C1(C)C (centres unmarked) [Compound V11] | − (Compounds showing less than 5% growth were scored (−)) | Weak protection | –
Cn1c(=O)c2[nH]c(CN3CCc4ccccc4C3)nc2n(C)c1=O [Compound V12] | − (Compounds showing less than 5% growth were scored (−)) | moderate activity | LD50 of ExoA in the presence of compound [3]: 228 ± 12 ng/mL; increase of the LD50 of ExoA [3]: ~3 fold
O=C(C1CCCN(Cc2c[nH]c3ccccc23)C1)N1CCCCCC1 (centres unmarked) [Compound V13] | − (Compounds showing less than 5% growth were scored (−)) | – | –
Cc1[nH]c2ccccc2c1CN1CCN(c2ccccn2)CC1 [Compound V14] | − (Compounds showing less than 5% growth were scored (−)) | – | –
CCn1c(SCc2nc3ccccc3c(=O)[nH]2)nnc1-c1ccc(Cl)cc1 [Compound V15] | + (5-25% (+)) | moderate activity | LD50 of ExoA in the presence of compound [3]: 208 ± 41 ng/mL; protection in yeast against ExoAc (in words) [1]: weak protection

SMILES | Protection in Yeast [1] | protection of C38 cells against ExoA (in words) [3] | other results
Cc1cc(Nc2ccc(O)cc2)c2ccccc2n1.Cl [Compound V16] | − (Compounds showing less than 5% growth were scored (−)) | Weak protection | –
Cn1c(=O)c2[nH]c(CNCc3ccccc3Cl)nc2n(C)c1=O [Compound V17] | − (Compounds showing less than 5% growth were scored (−)) | moderate activity | –
COc1ccc(NC(=O)CC2C(=O)N(c3ccc(Cl)cc3)C(=S)N2CCc2ccncc2)cc1 (centres unmarked) [Compound V18] | − (Compounds showing less than 5% growth were scored (−)) | – | –
Cn1c(=O)[nH]c(=O)c2c1nc(N1CCCCC1)n2CCCSc1nc2ccccc2s1 [Compound V19] | − (Compounds showing less than 5% growth were scored (−)) | – | –
O=C(CC1C(=O)NCCN1C(=O)CN1CCN(CCO)CC1)Nc1ccccc1 (centres unmarked) [Compound V20] | − (Compounds showing less than 5% growth were scored (−)) | – | –
COC(=O)c1[nH]c(C)c(C(=O)C2=C(O)C(=O)N(CCCN3CCOCC3)C2c2ccccn2)c1C (centres unmarked) [Compound V21] | − (Compounds showing less than 5% growth were scored (−)) | Weak protection | –
CN(C)CCNc1c(N)c(=O)oc2ccccc12 [Compound V22] | − (Compounds showing less than 5% growth were scored (−)) | Weak protection | –
CN1CCN(CCCNc2c(N)c(=O)oc3ccccc23)CC1 [Compound V23] | ++ (25-50% (++)) | moderate activity | LD50 of ExoA in the presence of compound [3]: 199 ± 30 ng/mL; protection in yeast against ExoAc (in words) [1]: modest protection
CCN(CC)CCn1c(NCc2ccc(F)cc2)nc2ccccc21.Cl.Cl [Compound V24] | − (Compounds showing less than 5% growth were scored (−)) | moderate activity | LD50 of ExoA in the presence of compound [3]: 238 ± 16 ng/mL
CCOC(=O)c1[nH]c(C)c(C(=O)C2=C(O)C(=O)N(CCCN3CCOCC3)C2c2cccc(F)c2)c1C (centres unmarked) [Compound V25] | − (Compounds showing less than 5% growth were scored (−)) | Weak protection | –
Brc1cccc(CNc2nc3ccccc3n2CCN2CCOCC2)c1 [Compound V26] | − (Compounds showing less than 5% growth were scored (−)) | Weak protection | –
CCc1ccc2ncc(C(=O)O)c(O)c2c1 [Compound V27] | − (Compounds showing less than 5% growth were scored (−)) | – | –
CCOC(=O)c1cnc2ccc(OCC)cc2c1Nc1ccc(C)cc1C [Compound V28] | toxic (any compound that reduced cell viability to less than 30%) | – | –
CC1CCCCN1c1nc2c(c(=O)[nH]c(=O)n2C)n1Cc1ccccc1 (centres unmarked) [Compound V29] | + (5-25% (+)) | Weak protection | protection in yeast against ExoAc (in words) [1]: weak protection
CC(=O)Nc1c(Nc2ccccc2)c2ccccc2oc1=O [Compound V31] | + (5-25% (+)) | Weak protection | protection in yeast against ExoAc (in words) [1]: weak protection
O=C1NC(=O)c2cccc3cccc1c23 [NAP, 1,8-naphthalimide, reference compound] | ++++ (Compounds found to restore growth to 50-75% (++++)) | excellent protection | Kd (WT ExoAc): 950 ± 30 nM; EC50 ([2]; Homo sapiens): 3800 ± 900 nM
CN(C)CC(=O)Nc1ccc2[nH]c(=O)c3ccccc3c2c1.Cl [PJ34, N-(6-oxo-5,6-dihydrophenanthridin-2-yl)-(N,N-dimethylamino)acetamide hydrochloride, reference compound] | − (Compounds showing less than 5% growth were scored (−)) | – | Kd (WT ExoAc): 820 ± 54 nM; IC50 (cholix toxin): 280 ± 70 nM; Ki (cholix toxin): 37 ± 9 nM
O=c1[nH]c2ccccc2c2ccccc12 [PJ97A, reference compound] | – | strong protection | LD50 of ExoA in the presence of compound [3]: > 750 ng/mL; increase of the LD50 of ExoA [3]: ~12 fold; Kd (WT ExoAc; read-out: Kd): 393 ± 64 nM; IC50 (cholix toxin; read-out: IC50): 4670 ± 175 nM; Ki (cholix toxin; read-out: Ki): 610 ± 175 nM
